Experimental data: article PMC8795149, “Characterization of a novel non-steroidal glucocorticoid receptor agonist optimized for topical treatment” (Scientific Reports, 2022)
Where “and” joins values, the source holds several entries; their conditions need not be identical. Identical values can stand only once.

Assays:
[1] = biological target: T1, human Mineralocorticoid Receptor (Homo sapiens, UniProt P08235); test: MR antagonist assay, MR reporter assay; assay type: cell-based
T1 construct: host or cells: HEK293 (DSMZ ACC 305)
T1 sequence (P08235 726-964 limits assumed): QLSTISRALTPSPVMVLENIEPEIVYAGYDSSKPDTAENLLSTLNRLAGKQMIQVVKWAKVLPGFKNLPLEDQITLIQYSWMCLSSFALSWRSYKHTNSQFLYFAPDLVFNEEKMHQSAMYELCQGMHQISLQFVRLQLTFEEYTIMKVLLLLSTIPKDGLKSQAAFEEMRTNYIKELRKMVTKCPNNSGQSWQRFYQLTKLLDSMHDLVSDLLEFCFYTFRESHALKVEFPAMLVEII
Method: Assays were performed at Indigo Biosciences according to standard protocols. In brief, MR-luciferase reporter cells were incubated with medium containing charcoal-stripped fetal bovine serum and incubated with test and reference compounds for 24 h before measuring luminescence. Data were fitted by the means of four parameter logistic regression.
LEO 134310 and LEO 134988 were tested in the human Mineralocorticoid Receptor in cellular GAL4 reporter gene assays. All assays were done in HEK293 cells (DSMZ ACC 305). The plasmids used in Phenex’ GAL4 assay system are derivatives of Stratagene’s M2H plasmids: the reporter plasmid pFR-Luc (contains a synthetic promoter with five tandem repeats of the yeast GAL4 binding sites that control expression of the Photinus pyralis (American firefly) luciferase gene), and pCMV-BD (for fusions of nuclear receptor ligand binding domains to the DNA-binding domain of the yeast protein GAL4). In order to improve experimental accuracy, a second reporter - Renilla reniformis luciferase, driven by a constitutive promoter - was included as internal control. Using the control reporter (pRL-CMV) allows correcting for variations in experimental handling e.g. transfection efficacy, cell viability, pipetting errors, cell lysis efficiency and assay efficiency. The compounds were tested in 9 concentrations in triplicates.

[2] = Stability in whole blood (rat); assay type: in vitro ADME; conditions: 0.1 µM, 37 °C
Method: (§1) Compounds were incubated in diluted fresh rat, dog, minipig or human whole blood (heparin stabilized, 50% blood and 50% phosphate buffer with 1% bovine serum albumin) for 120 min at 0.1 µM, at 37 °C and the half-lives were determined. Samples were taken at 0, 15, 30, 60 and 120 min, and reactions were terminated by addition of acetonitrile containing analytical internal standard (IS). Test compound depletion was determined using time-of-flight mass spectrometry in positive ion mode (TOF–MS; AB Sciex API5600). Elimination rate constants (k) were calculated from peak areas and the half-lives was determined (t½ = ln2/k).

[3] = Hepatocyte stability (rat); assay type: in vitro ADME; conditions: predicted hepatic clearance, well stirred model
Method: (§2) Compounds (1.0 µM) were incubated in duplicates with rat, dog, minipig or human hepatocytes (1.0 million cells/mL) in phosphate buffer, in 96-well plates for 120 min (37 °C). Reactions were stopped by addition of cold acetonitrile, at 0, 10, 30, 60, and 120 min, and dispensed into cold acetonitrile to stop the reactions. Plates were centrifuged for 30 min and samples were analysed using liquid chromatography coupled to a time-of-flight mass spectrometer. Compound depletion over time was used to estimate the elimination rate constant, from which the apparent intrinsic clearance (CLapp), and half-life (t½), were calculated.

[4] = system: 8 ion channels, 40 kinases, 2 phosphatases, up to 163 G-protein coupled receptors; test: Off-target panels (Eurofins IonChannelProfiler, KinaseProfiler, GPCRProfiler); conditions: 10 µM
[5] = Compound concentration in dermis, human skin explants; assay type: in vitro ADME; conditions: 24 h, propylene carbonate
Method: NativeSkin models (NS002) were purchased from Genoskin, France. Human skin samples from abdominal reduction surgery were obtained by Genoskin from donors upon written informed consent. Full ethical approval for the study protocol was obtained from the French ethical research committee (Comité de Protection des Personnes), and authorization was given by the French Ministry of Research. The study was conducted according to the Declaration of Helsinki. 8 mm punch biopsies were excised and embedded in a fibrin-based matrix in transwells and a silicone ring was firmly attached to the surface covering the outer edge of the skin biopsy to prevent lateral diffusion of topically applied formulations. […]
The concentrations of the compounds in dermis were determined from skin biopsies from the human skin explants. […] After homogenization, the samples were diluted, centrifuged and precipitated with acetonitrile containing internal standard (IS), and the compounds were thereafter quantified by means of liquid chromatography-tandem mass spectrometry (LC-MS/MS) using an AB Sciex 5500 or 6500 QTRAP. Calibration curves were prepared by spiking the analytes in blank homogenate, and a generic IS were used in quantification. The dermis micro molar concentrations were calculated assuming 1 gram of skin tissue equal to 1 mL.

[6] = system: PPAR-alpha, LXR-beta, RAR-alpha, RXR-alpha, ER-alpha, PR, AR, ER-beta and TR; test: Selectivity screening on nuclear receptors, radioligand binding (CEREP); design: species or system human; conditions: 10µM; greater than 25% displacement considered significant
Method: Selectivity screening on nuclear receptors – Studies were performed at CEREP using their proprietary assays for human PPARalpha, LXRbeta, RARalpha, RXRalpha, ERalpha, ERbeta, progesterone receptor, androgen receptor and thyroid hormone receptor employing specific, radiolabeled agonist ligands. Interactions leading to greater than 25% displacement of the radiolabeled agonist ligand were considered significant. Concentrations of LEO 134310 and LEO 134998 were 10µM.

[7] = Hepatocyte stability (human); assay type: in vitro ADME; conditions: predicted hepatic clearance, well stirred model
Method: as §2

[8] = Hepatocyte stability (minipig); assay type: in vitro ADME; conditions: predicted hepatic clearance, well stirred model
Method: as §2

[9] = Stability in whole blood (human); assay type: in vitro ADME; conditions: 0.1 µM, 37 °C
Method: Anonymized human blood samples were obtained from healthy volunteer donors upon informed written consent and in accordance with national legislation.
as §1

C[C@H](NC(=O)[C@H]1CCCO1)[C@H](Oc1ccc(C(=O)O[C@H]2CCCN(C(=O)[C@H]3COC(=O)C3)C2)cc1)c1ccc(C2CC2)cc1 [LEO 134310]
Antagonist activity on MR [1]: no antagonist activity on MR | In vitro (blood) half-life [2]: 2.2 (2.1, 2.2) (n = 2) min | In vitro (hepatocytes) CLH [3]: 57 (n = 1) mL/min/kg | Off-target activity in ion channel, kinase, phosphatase and GPCR panels [4]: no off-target activity was identified | Higher dose needed to achieve similar dermis concentrations compared to BMV [5]: 3 fold | Higher dose needed to achieve similar dermis concentrations compared to CP [5]: 7 fold | Interaction with nine nuclear hormone receptors in specific binding assays [6]: no significant interaction | In vitro (hepatocytes) CLH [7]: > 18 (n = 1) mL/min/kg | In vitro (hepatocytes) CLH [8]: > 35 (n = 1) mL/min/kg | In vitro (blood) half-life [9]: 6 min and 4.4 ± 2.2 (n = 4) min
